Our source for the MIC and ED50 values is patent publication US7183253B2, “Substantially pure glycopeptide antibiotics AC-98-1, AC-98-2, AC-98-3, AC-98-4 and AC-98-5” (Wyeth Holdings Corp., priority 2001, dated 2007).

The subject of assay [1] is Micrococcus luteus (ATCC 9341). The experiment in a line: In vitro antibacterial activity, agar dilution MIC. The conditions noted are these: ATCC9341, Mueller-Hinton agar, 5% sheep blood, 18 hours. Format: cell-based. On the procedure:
(§1) The in vitro antibacterial activity of substantially pure glycopeptide antibiotics AC-98-1, AC-98-2, AC-98-3, AC-98-4, and AC-98-5 from Examples 2 and 3 is determined against a spectrum of bacteria by a standard agar dilution method. Mueller-Hinton agar containing 5% sheep blood and two-fold decreasing concentrations of substantially pure glycopeptide antibiotics AC-98-1, AC-98-2, AC-98-3, AC-98-4, and AC-98-5 from Examples 2 and 3 are poured into petri dishes. The agar surfaces are inoculated with 1 to 5×10^4 colony forming units of bacteria by means of a Steers replicating device. The lowest concentration of antibiotic that inhibited the growth of a bacterial strain after 18 hours incubation is recorded as the minimal inhibitory concentration for that strain.

Assay [2] deals with Streptococcus pneumoniae (ID-4444). Nature of the assay: In vitro antibacterial activity, agar dilution MIC. It is filed as cell-based. The conditions noted are these: Mueller-Hinton agar, 5% sheep blood, 18 hours. On the procedure:
as §1
Background: Agar dilution tests growth on a series of plates holding different concentrations.

The test system of assay [3] is Staphylococcus aureus Smith. The experiment in a line: In vivo antibacterial activity in infected mice. The settings on record: female CD-1 mice infected intraperitoneally with Staphylococcus aureus Smith; treated intravenously 30 minutes before infection; read-out: ED50 (iv, mg/kg) Staphylococcus aureus. On the procedure: The in vivo antibacterial activity of substantially pure glycopeptides AC-98-1, AC-98-2, AC-98-3, AC-98-4, and AC-98-5 is established by infecting female CD-1 mice from Charles River Laboratories, weighing 20+/−2 g each, intraperitoneally with 6.5×10^5 CFU/0.5 ml of broth of Staphylococcus aureus Smith. The mice are treated intravenously, 30 minutes before infection with the indicated dose of the test compound in 0.2 ml of water.

Assay [4] concerns Enterococcus faecium (ID-3301). The experiment in a line: In vitro antibacterial activity, agar dilution MIC. It is filed as cell-based. The conditions noted are these: Mueller-Hinton agar, 5% sheep blood, 18 hours. How it is done:
as §1

The next assay deals with Escherichia coli (J2175). Nature of the assay: In vitro antibacterial activity, agar dilution MIC. It is filed as cell-based. The conditions noted are these: Mueller-Hinton agar, 5% sheep blood, 18 hours. On the procedure:
as §1

Assay [5] relates to Staphylococcus aureus (ID-4379). Nature of the assay: In vitro antibacterial activity, agar dilution MIC. It is filed as cell-based. The conditions noted are these: Mueller-Hinton agar, 5% sheep blood, 18 hours. How it is done:
as §1

For assay [6], the system named is Enterococcus faecium (ID-3953). Nature of the assay: In vitro antibacterial activity, agar dilution MIC. It is filed as cell-based. The settings on record: Mueller-Hinton agar, 5% sheep blood, 18 hours. How it is done:
as §1

Assay [7] relates to Escherichia coli (ATCC 25922). Nature of the assay: In vitro antibacterial activity, agar dilution MIC. It is filed as cell-based. The conditions noted are these: ATCC25922, Mueller-Hinton agar, 5% sheep blood, 18 hours. How it is done: as §1
The subject of assay [8] is Streptococcus pneumoniae (GC1889). The experiment in a line: In vitro antibacterial activity, agar dilution MIC. It is filed as cell-based. The conditions noted are these: Mueller-Hinton agar, 5% sheep blood, 18 hours. How it is done:
as §1

Molecules are shown by their SMILES. ≈ marks a conversion by molar mass, not a printed value. Numbered stars: 1 amine (or outer) side, 2 acyl side, 3 side chain; on linkers, the order of the positions; unused ones are H or OH. Square brackets hold non-standard residues; d marks the D form. Peptide text beside a SMILES is read from it. * marks the point of attachment. ξ: configuration not given here. X1 = N=C1NCC(C(O)C(N[*:1])C(=O)[*:2])N1C1OC(CO)C(O)C(O)C1O; ξEnduracididine(βξ-OH,4'ξ) = N=C1NCC(C(O)C(N)C(=O)O)N1; X2 = OCC1OC(OC2C(CO)OC(*)C(O)C2O)C(O)C(O)C1O; ξPhe(βξ-Me) = CC(c1ccccc1)C(N)C(=O)O

Broadly, the MIC is the lowest concentration found to suppress growth. Lower therefore signals a more susceptible organism. Regarding `CC(c1ccccc1)C1NC(=O)CNC(=O)C(CO)NC(=O)C(C(O)C2CNC(=N)N2C2OC(CO)C(O)C(O)C2O)NC(=O)C(C(O)C2CNC(=N)N2)NC(=O)C(Cc2ccc(OC3OC(CO)C(OC4OC(CO)C(O)C(O)C4O)C(O)C3O)cc2)NC1=O` (stereo not drawn) [AC-98-1] (cyclo(G[ξPhe(βξ-Me)]Y(X2)[ξEnduracididine(βξ-OH,4'ξ)][X1]S); configuration not given here), the MIC is 64 mg/mL (≈ 49.4 mM) in assay [1] and over 32 mg/mL in assay [2]. The ED50 in [3] was 20 mg/kg.

On to `CC(C)CC(=O)OC1C(CO)OC(OC2C(CO)OC(Oc3ccc(CC4NC(=O)C(C(C)c5ccccc5)NC(=O)CNC(=O)C(CO)NC(=O)C(C(O)C5CNC(=N)N5C5OC(CO)C(O)C(O)C5O)NC(=O)C(C(O)C5CNC(=N)N5)NC4=O)cc3)C(O)C2O)C(O)C1O` (stereo not drawn) [AC-98-5], for which the MIC in assay [4] was 16 mg/mL (≈ 11.6 mM); in the assay with Escherichia coli (J2175), 64 mg/mL (≈ 46.4 mM); in assay [5], 4 mg/mL (≈ 2.9 mM); in assay [6] it was 32 mg/mL (≈ 23.2 mM); in [1], 1 mg/mL (≈ 0.725 mM); in assay [2], 2 mg/mL (≈ 1.45 mM). In [3], the ED50 was 0.6 mg/kg.

With `CC(c1ccccc1)C1NC(=O)CNC(=O)C(CO)NC(=O)C(C(O)C2CNC(=N)N2C2OC(CO)C(O)C(O)C2O)NC(=O)C(C(O)C2CNC(=N)N2)NC(=O)C(Cc2ccc(O)cc2)NC1=O` (stereo not drawn) [AC-98-2] (cyclo(G[ξPhe(βξ-Me)]Y[ξEnduracididine(βξ-OH,4'ξ)][X1]S); configuration not given here), the MIC in the assay on Escherichia coli (J2175) is 64 mg/mL (≈ 65.9 mM); in assay [5], 64 mg/mL (≈ 65.9 mM); in [1], 16 mg/mL (≈ 16.5 mM); in assay [7], 64 mg/mL (≈ 65.9 mM); in assay [2], over 64 mg/mL. For the same compound, the ED50 in assay [3] is over 32 mg/kg.

For `CC(C)CC(=O)OC1C(O)C(CO)OC(OC2C(CO)OC(Oc3ccc(CC4NC(=O)C(C(C)c5ccccc5)NC(=O)CNC(=O)C(CO)NC(=O)C(C(O)C5CNC(=N)N5C5OC(CO)C(O)C(O)C5O)NC(=O)C(C(O)C5CNC(=N)N5)NC4=O)cc3)C(O)C2O)C1O` (stereo not drawn) [AC-98-4], the MIC in assay [4] came to 64 mg/mL (≈ 46.4 mM); in assay [5] it was 4 mg/mL (≈ 2.9 mM); in assay [6] it was 64 mg/mL (≈ 46.4 mM); in [1], 2 mg/mL (≈ 1.45 mM); in assay [8], 4 mg/mL (≈ 2.9 mM); in assay [2], 4 mg/mL (≈ 2.9 mM). Besides, the ED50 in assay [3] came to 2.6 mg/kg.

In the case of `CC(C)CC(=O)OC1C(OC2C(CO)OC(Oc3ccc(CC4NC(=O)C(C(C)c5ccccc5)NC(=O)CNC(=O)C(CO)NC(=O)C(C(O)C5CNC(=N)N5C5OC(CO)C(O)C(O)C5O)NC(=O)C(C(O)C5CNC(=N)N5)NC4=O)cc3)C(O)C2O)OC(CO)C(O)C1O` (stereo not drawn) [AC-98-3], the MIC in assay [4] came to 64 mg/mL (≈ 46.4 mM); in assay [5], 8 mg/mL (≈ 5.8 mM); in [6] it was 64 mg/mL (≈ 46.4 mM); in assay [1], 2 mg/mL (≈ 1.45 mM); in assay [8] it was 4 mg/mL (≈ 2.9 mM); in assay [2] it was 8 mg/mL (≈ 5.8 mM). Further, in [3], the ED50 came to 3.8 mg/kg.
